# In ChEMBL document CHEMBL3217450, “Structure based virtual screening for discovery of novel human neutrophil elastase inhibitors” (Medchemcomm, 2012):
# Residues, ends and D or L forms follow the SMILES beside them. *: point of attachment. MeOSuc = COC(=O)CCC(=O)*; CH2Cl = ClC*
# Key:
# Neutrophil elastase = target: T1, Neutrophil elastase (Homo sapiens, UniProt P08246); experiment: Inhibition of human neutrophil elastase using N-MeOSuc-Ala-Ala-Pro-Val-p-nitroanilide as substrate incubated for 30 mins prior to substrate addition measured for 60 mins by chromogenic 96 well microplate assay
# T1 sequence (P08246 whole entry): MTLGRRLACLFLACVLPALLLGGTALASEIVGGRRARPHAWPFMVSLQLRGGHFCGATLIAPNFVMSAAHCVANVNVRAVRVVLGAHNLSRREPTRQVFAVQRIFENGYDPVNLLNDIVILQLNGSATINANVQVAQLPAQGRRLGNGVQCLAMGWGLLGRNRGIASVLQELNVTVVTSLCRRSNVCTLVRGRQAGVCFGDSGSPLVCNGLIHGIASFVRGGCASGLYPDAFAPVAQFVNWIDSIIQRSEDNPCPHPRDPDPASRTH
# [1] = target: T2, Neutrophil elastase (Homo sapiens) (UniProt P08246); experiment: Competitive inhibition of human neutrophil elastase assessed as product formation using N-MeOSuc-Ala-Ala-Pro-Val-p-nitroanilide as substrate measured for 120 mins by chromogenic 96 well microplate assay
# T2 sequence (whole entry): T1 sequence (P08246 whole entry)
# Pancreatic elastase = Pancreatic elastase (Sus scrofa, UniProt P08419+P00772); experiment: Inhibition of porcine pancreatic elastase using MeO-Suc-Ala-Ala-Pro-Val-AMC as substrate incubated for 30 mins prior to substrate addition measured for 30 mins by incubation method based fluorescence analysis; format: protein assay
# Cathepsin G = target: T3, Cathepsin G (Homo sapiens, UniProt P08311); experiment: Inhibition of cathepsin G in human neutrophil using Suc-Ala-Ala-Pro-Phe-p-nitroanilide as chromogenic substrate incubated for 30 mins prior to substrate addition measured for 30 mins by progress curve method
# T3 sequence (P08311 whole entry): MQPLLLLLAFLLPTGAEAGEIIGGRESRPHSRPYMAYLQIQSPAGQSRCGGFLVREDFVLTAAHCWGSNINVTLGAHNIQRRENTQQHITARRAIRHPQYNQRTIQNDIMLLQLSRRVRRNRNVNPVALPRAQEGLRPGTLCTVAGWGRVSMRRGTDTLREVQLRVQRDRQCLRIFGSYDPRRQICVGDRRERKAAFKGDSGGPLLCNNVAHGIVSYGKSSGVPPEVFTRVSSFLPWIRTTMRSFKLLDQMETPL
# Myeloblastin = target: T4, Myeloblastin (Homo sapiens, UniProt P24158); experiment: Inhibition of proteinase 3 in human neutrophil using N-MeOSuc-Ala-Ala-Pro-Val-p-nitroanilide as chromogenic substrate measured for 60 mins by chromogenic assay
# T4 sequence (P24158 whole entry): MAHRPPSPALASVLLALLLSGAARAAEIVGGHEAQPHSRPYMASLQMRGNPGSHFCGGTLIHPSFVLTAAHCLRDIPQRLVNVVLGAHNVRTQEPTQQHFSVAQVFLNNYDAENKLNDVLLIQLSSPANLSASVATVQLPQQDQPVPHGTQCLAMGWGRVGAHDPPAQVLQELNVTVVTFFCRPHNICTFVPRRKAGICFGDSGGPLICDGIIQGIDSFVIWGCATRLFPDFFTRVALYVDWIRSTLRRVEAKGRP
# [2] = Cytotoxicity against mouse NIH/3T3 cells after 24 hrs; format: cell-based; conditions: NIH3T3, 24 h
# HEK-293T = experiment: Cytotoxicity against human HEK293T cells after 24 hrs; format: cell-based
# [3] = Chemical stability of the compound in phosphate buffer at pH 7.4 assessed as compound remaining at 100 uM after 2 days by HPLC analysis; format: physicochemical; conditions: read-out: Stability
# [4] = Metabolic stability in human plasma assessed as compound remaining after 2 days by HPLC analysis; format: ADME, cell-free; conditions: read-out: Stability
# [5] = Metabolic stability in Sprague-Dawley rat pooled liver microsomes assessed as compound remaining after 2 days by HPLC analysis in presence of NADPH generating system; format: ADME; conditions: read-out: Stability
# [6] = Metabolic stability in Sprague-Dawley rat pooled liver microsomes assessed as compound remaining after 2 days by HPLC analysis in absence of NADPH generating system; format: ADME; conditions: read-out: Stability
# [7] = Chemical stability of the compound in phosphate buffer at pH 7.4 assessed as compound remaining at 50 uM after 2 days by HPLC analysis; format: physicochemical; conditions: read-out: Stability
Compound,IC50 (Neutrophil elastase; read-out: IC50),IC50 (Neutrophil elastase),further results
O=C(CSc1nc2ccccc2n1Cc1ccccc1F)NCc1ccc2c(c1)OCO2,–,ND(Insoluble),–
NC(=O)CSc1nnc2c3c4c(sc3nc(SCc3ccccc3)n12)CCC4,> 100 µM,–,–
COc1ccc(-n2c(COc3ccc4ccccc4c3)nnc2SCC(=O)O)cc1,> 100 µM,–,–
COc1ccc(C(=O)CSc2nnc(COc3ccccc3)n2Cc2ccco2)cc1,–,ND(Insoluble),–
CCOC(=O)C(CSCc1ccccc1)NC(=O)c1coc(-c2ccc(N)cc2)n1 (stereo unspecified),32.1 µM,–,–
Nc1c(C(=O)NCc2cccs2)c2nc3ccccc3nc2n1/N=C/c1ccccn1,17.6 µM,–,–
Nc1nnc(SC(C(=O)Nc2cc(Cl)cc(Cl)c2)c2ccccc2)[nH]1 (stereo unspecified),26.9 µM,–,"inhibition [1]: Dose-dependent effect; IC50 (Pancreatic elastase): > 139 µM; IC50 (Cathepsin G): > 139 µM; IC50 (Myeloblastin): > 139 µM; IC50 [2]: > 139 µM; IC50 (HEK-293T): > 139 µM; remaining at 48 h, 100 µM [3]: > 80%; remaining at 48 h [4]: > 80%; remaining at 48 h [5]: > 80%; remaining at 48 h [6]: > 80%"
COc1ccc(CCNC(=O)C(Sc2ccccn2)c2ccccc2)cc1OC (stereo unspecified),> 100 µM,–,–
Oc1ccc2c(c1)Oc1ncn3nc(CO/N=C/c4ccccc4)nc3c1C2c1ccccc1 (stereo unspecified),> 100 µM,–,–
O=C(Cc1cn2ccsc2n1)N/N=C/c1cn(-c2ccccc2)nc1-c1cccs1,–,ND(Insoluble),–
COC(=O)CCC(=O)N[C@@H](C)C(=O)N[C@@H](C)C(=O)N1CCC[C@H]1C(=O)N[C@@H](C)C(=O)CCl (MeOSuc-AAPA-CH2Cl),20.3 µM,–,–
COc1ccc(-n2c(COc3ccc4ccccc4c3)nnc2SCC(N)=O)cc1,> 100 µM,–,–
CCC(N)c1nc(C(=O)NC(Cc2ccccc2)C(=O)OCc2ccccc2)co1 (stereo unspecified),> 100 µM,–,–
NC(=O)CSc1nnc2c3c4c(sc3nc(SCc3ccccc3)n12)CCCC4,–,ND(Insoluble),–
O=C(Oc1coc(CSc2nnc(NC(=O)C3CC3)s2)cc1=O)c1cccc(F)c1,18.4 µM,–,"inhibition [1]: Dose-dependent effect; IC50 (Pancreatic elastase): > 134 µM; IC50 (Cathepsin G): > 134 µM; IC50 (Myeloblastin): > 134 µM; IC50 [2]: > 134 µM; IC50 (HEK-293T): > 134 µM; remaining at 48 h, 50 µM [7]: > 80%"
COC(=O)C(CSCc1ccccc1)NC(=O)CSc1nc2ccccc2[nH]1 (stereo unspecified),> 100 µM,–,–
O=C(NCc1ccccc1)c1ccc2nc(-c3ccccn3)c(-c3ccccn3)nc2c1,> 100 µM,–,–
O=C(CSc1nnc2scc(-c3ccc(Cl)cc3)n12)NCc1cccnc1,> 100 µM,–,–
Cc1ccc(-n2c(COc3ccc4ccccc4c3)nnc2SCC(=O)O)cc1,> 100 µM,–,–

# Further lines, with some results ahead:
IC50 (Neutrophil elastase; read-out: IC50),IC50 (Neutrophil elastase),Compound,further results
> 100 µM,–,O=C(CSc1nnc(C2CC2)n1Cc1ccccc1)NCc1ccccc1,–
–,ND(Insoluble),c1ccc(-c2noc(CSc3nnc(Cc4cccs4)n3-c3ccccc3)n2)cc1,–
–,ND(Insoluble),CCC(Sc1nc(-c2ccccc2)cc(-c2ccccc2)n1)C(=O)Nc1nnc(C)s1 (stereo unspecified),–
–,ND(Insoluble),COc1ccc(C(=O)CSc2nnc(COc3ccccc3)n2Cc2ccccc2)cc1,–
–,ND(Insoluble),C=CCn1c(Cc2ccccc2)nnc1SCC(=O)Nc1nc(-c2ccccc2)cs1,–
–,ND(Insoluble),C=CCn1c(=O)c2ccccc2n2c(SCC(=O)NCc3cccs3)nnc12,–
> 100 µM,–,Cc1occc1-c1nnc(SCC(=O)NCCc2ccccc2)n1C(C)c1ccccc1 (stereo unspecified),–
> 100 µM,–,O=C(CSc1nnc(Cc2ccccc2)n1Cc1ccccc1)NCc1ccco1,–
> 100 µM,–,O=C(O)CSc1nnc(CSc2nc3ccccc3s2)n1-c1ccccc1,–
–,ND(Insoluble),Cc1sc(NC(=O)CSc2nnc(Cc3ccccc3)n2C)nc1-c1ccccc1,–
